Laboratory results taken from ChEMBL document CHEMBL5096217, “Design, synthesis and biological evaluation of novel 4-aminopiperidine derivatives as SMO/ERK dual inhibitors” (Bioorg Med Chem, 2022).

Tests used:
Protein smoothened = Protein smoothened (Mus musculus, UniProt P56726); assay: Inhibition of SMO in mouse 3T3/HH FlashII-7 cells incubated for 36 hrs in presence of SHH by Gli-luciferase reporter assay; assay type: cell-based
[1] = molecular target: T1, Mitogen-activated protein kinase 1 (Homo sapiens, UniProt P28482); assay: Inhibition of ERK2 (unknown origin) using kinase substrate 8 incubated for 40 mins in presence of ATP by mobility shift assay
[2] = molecular target: T1, Mitogen-activated protein kinase 1; assay: Inhibition of ERK2 (unknown origin) using kinase substrate 8 at 100 nM incubated for 40 mins in presence of ATP by mobility shift assay
[3] = Antiproliferative activity against human RBE cells overexpressing Hh/ERK pathway assessed as inhibition of cell growth incubated for 96 hrs by CCK8 assay; assay type: functional, cell-based
[4] = Antiproliferative activity against human RBE cells overexpressing Hh/ERK pathway assessed as inhibition of cell growth incubated for 96 hrs by CCK8 assay relative to SCH772984; assay type: functional
[5] = molecular target: Protein smoothened (Mus musculus) (UniProt P56726); assay: Inhibition of SMO in mouse 3T3/HH FlashII-7 cells at 100 nM incubated for 36 hrs in presence of SHH by Gli-luciferase reporter assay; assay type: cell-based
Chain of Protein smoothened (Mus musculus) (P56726 whole entry): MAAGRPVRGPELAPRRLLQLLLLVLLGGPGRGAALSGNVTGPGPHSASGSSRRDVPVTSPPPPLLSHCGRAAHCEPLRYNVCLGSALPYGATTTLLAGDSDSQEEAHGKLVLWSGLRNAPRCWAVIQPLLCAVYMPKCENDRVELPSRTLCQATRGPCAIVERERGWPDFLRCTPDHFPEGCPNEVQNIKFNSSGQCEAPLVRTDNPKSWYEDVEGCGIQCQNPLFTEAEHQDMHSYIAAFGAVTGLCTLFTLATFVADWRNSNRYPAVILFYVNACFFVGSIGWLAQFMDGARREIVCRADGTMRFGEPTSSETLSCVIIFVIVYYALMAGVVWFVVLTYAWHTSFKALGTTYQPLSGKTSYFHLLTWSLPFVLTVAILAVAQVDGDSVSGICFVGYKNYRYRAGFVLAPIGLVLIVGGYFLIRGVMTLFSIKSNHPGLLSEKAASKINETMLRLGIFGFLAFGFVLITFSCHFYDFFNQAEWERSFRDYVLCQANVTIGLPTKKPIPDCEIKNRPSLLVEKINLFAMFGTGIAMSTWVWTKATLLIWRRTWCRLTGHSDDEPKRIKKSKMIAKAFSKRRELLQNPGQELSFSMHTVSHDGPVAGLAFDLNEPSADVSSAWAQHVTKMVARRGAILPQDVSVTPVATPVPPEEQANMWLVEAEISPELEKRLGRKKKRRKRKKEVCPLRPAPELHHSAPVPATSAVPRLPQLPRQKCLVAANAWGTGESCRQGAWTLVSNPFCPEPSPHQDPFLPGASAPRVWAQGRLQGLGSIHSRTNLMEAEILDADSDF

Chain of Protein smoothened (P56726 whole entry): as above
T1 sequence (P28482 whole entry): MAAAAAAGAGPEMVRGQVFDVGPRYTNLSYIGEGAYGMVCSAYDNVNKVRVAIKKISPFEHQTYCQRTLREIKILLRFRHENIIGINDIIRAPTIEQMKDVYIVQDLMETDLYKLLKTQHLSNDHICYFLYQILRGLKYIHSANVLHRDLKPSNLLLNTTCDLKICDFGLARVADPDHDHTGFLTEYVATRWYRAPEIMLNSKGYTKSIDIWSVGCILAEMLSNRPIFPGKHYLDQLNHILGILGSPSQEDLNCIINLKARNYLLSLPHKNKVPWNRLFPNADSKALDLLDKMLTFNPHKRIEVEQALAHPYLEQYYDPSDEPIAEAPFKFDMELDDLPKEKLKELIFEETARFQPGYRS

Q: For `Cn1cc(-c2ccc(N3CCC(NC(=O)Nc4ccc(Oc5nc(NC6CCOCC6)ncc5Cl)cc4)CC3)nn2)cn1`, which IC50 (Protein smoothened) is on record?
A: Its IC50 is greater than 1000 nM.

Q: And the IC50 [1]?
A: Its IC50 is 164 nM.

Q: For `Cc1c(-c2ccnn2C)nnc(N2CCC(NC(=O)Nc3ccc(Sc4nc(NC5CCOCC5)ncc4C(F)(F)F)cc3)CC2)c1C`, which IC50 (Protein smoothened) is on record?
A: Its IC50 is 155 nM.

Q: And the inhibition [2]?
A: Its inhibition is 84.2%.

Q: What about the IC50 [3] of the same compound?
A: Its IC50 is 1450 nM.

Q: And the “fold change (FC)” value [4]?
A: Its value is 0.89.

Q: With `O=C(Nc1ccc2[nH]nc(-c3ccncc3)c2c1)[C@@H]1CCN(CC(=O)N2CCN(c3ccc(-c4ncccn4)cc3)CC2)C1` as the compound, how does the IC50 [3] read?
A: Its IC50 is 1630 nM.

Q: What does the source list for `CN(C(=O)c1ccc(F)cc1C(F)(F)F)C1CCN(c2nnc(-c3ccnn3C)c3ccccc23)CC1` [TALADEGIB]?
A: IC50 (Protein smoothened): 1.18 nM; IC50 [3]: > 50000 nM

Q: For `Cc1cnc(NC2CCOCC2)nc1Oc1ccc(NC(=O)NC2CCN(c3nnc(-c4ccnn4C)c(C)c3C)CC2)cc1`, which IC50 (Protein smoothened) is on record?
A: Its IC50 is 150 nM.

Q: What about the inhibition [2] of the same compound?
A: Its inhibition is 60.7%.

Q: Which IC50 (Protein smoothened) does the source give for `Cc1c(-c2ccnn2C)nnc(N2CCC(NC(=O)Nc3ccc(Oc4nc(NC5CCOCC5)ncc4C(F)(F)F)cc3)CC2)c1C` here?
A: The IC50 was 190 nM.

Q: And the inhibition [2]?
A: Its inhibition is 85%.

Q: With `Cc1c(-c2cnn(C)c2)nnc(N2CCC(NC(=O)Nc3ccc(Oc4nc(NC5CCOCC5)ncc4Cl)cc3)CC2)c1C` as the compound, how does the IC50 (Protein smoothened) read?
A: Its IC50 is 409 nM.

Q: And the IC50 [1]?
A: The IC50 was 41 nM.

Q: With `Cc1c(-c2ccnn2C)nnc(N2CCC(NC(=O)Nc3ccc(Oc4nc(Nc5ccn(C)n5)ncc4Cl)cc3)CC2)c1C` as the compound, how does the inhibition [2] read?
A: Its inhibition is 6.6%.

Q: Which inhibition [2] does the source give for `Cc1c(-c2ccnn2C)nnc(N2CCC(NC(=O)Nc3ccc(Oc4nc(NC(C)C)ncc4Cl)cc3)CC2)c1C` here?
A: Its inhibition is 5.6%.

Q: For `Cc1c(-c2ccnn2C)nnc(N2CCC(NC(=O)Nc3ccc(Sc4nc(NC5CCOCC5)ncc4Cl)cc3)CC2)c1C`, which IC50 (Protein smoothened) is on record?
A: The IC50 was 17.6 nM.

Q: What about the inhibition [2] of the same compound?
A: Its inhibition is 91.2%.

Q: What about the IC50 [3] of the same compound?
A: The IC50 was 2170 nM.

Q: What about the “fold change (FC)” value [4] of the same compound?
A: The value was 1.33.

Q: Which results are given for `Cc1c(-c2ccnn2C)nnc(N2CCC(NC(=O)c3ccc(NC(=O)c4ccnc(NC5CCOCC5)n4)cc3C(F)(F)F)CC2)c1C`?
A: IC50 [1]: 3320 nM; inhibition [5]: 68.2%

Q: For `Cn1nccc1-c1ccc(N2CCC(NC(=O)Nc3ccc(Oc4nc(NC5CCOCC5)ncc4Cl)cc3)CC2)nn1`, which inhibition [5] is on record?
A: Its inhibition is 68.5%.

Q: What about the inhibition [2] of the same compound?
A: Its inhibition is 46.4%.

Q: With `Cc1c(-c2ccnn2C)nnc(N2CCC(NC(=O)Nc3ccc(Oc4nc(NC5CCOCC5)ncc4Cl)cc3)CC2)c1C` as the compound, how does the inhibition [5] read?
A: The inhibition was 89.9%.

Q: And the inhibition [2]?
A: Its inhibition is 80.9%.

Q: And the IC50 [3]?
A: Its IC50 is 12300 nM.

Q: What about the “fold change (FC)” value [4] of the same compound?
A: The value was 7.59.

Q: Which IC50 (Protein smoothened) does the source give for `Cc1c(-c2ccnn2C)nnc(N2CCC(NC(=O)Nc3ccc(Nc4nc(NC5CCOCC5)ncc4Cl)cc3)CC2)c1C` here?
A: Its IC50 is 63.9 nM.

Q: What about the inhibition [2] of the same compound?
A: Its inhibition is 36.9%.

Q: Which results are given for `Cc1c(-c2ccnn2C)nnc(N2CCC(NC(=O)Nc3ccc(Oc4nc(Nc5cnn(C)c5)ncc4Cl)cc3)CC2)c1C`?
A: IC50 (Protein smoothened): 17.8 nM; inhibition [2]: 46%

Q: Which IC50 [1] does the source give for `Cc1c(-c2ccnn2C)nnc(N2CCC(NC(=O)Nc3ccc(Oc4ccnc(NC5CCOCC5)n4)cc3)CC2)c1C` here?
A: Its IC50 is 1320 nM.

Q: And the inhibition [5]?
A: Its inhibition is 90.4%.

Q: For `Cc1c(-c2ccnn2C)nnc(N2CCC(NC(=O)Nc3ccc(Oc4nc(Nc5ccnn5C)ncc4Cl)cc3)CC2)c1C`, which inhibition [2] is on record?
A: Its inhibition is 1.1%.
